Experimental data reported in patent US20230285556A1, “METHODS AND COMPOSITIONS FOR TREATING CANCER” (Omeros Corporation, priority 2021, published 2023).

Columns and labels:
Assay type in all cases: cell-based
OT-I mouse CD8 T cells = assay: Example 1: OT-I CD8 T cell 10-day expansion with inhibitors, IL-2 after restimulation with EG7 cells; conditions: 10-day expansion with IL-7+IL-15; 300 nM Compound #10, 100 nM ZM-241385; restimulated with EG7 cells without inhibitors, 6 hours
Protocol: Purified OT-I mouse CD8 T cells (StemCell mouse CD8 T cell purification kit) were cultured in 24-well plates with C57BL/6 mouse splenocytes (pre-treated with mitomycin C to prevent growth) and pOVA according to the following condition per well: • 2 mL RP10 media (RPMI, 10% fetal calf serum, 6 mM L-Glutamine, 12.5 mM HEPES, 50 μM 2-mercaptoethanol, Penicillin, Streptomycin) • 0.2 million OT-I CD8 T cells • 1.4 million mitomycin C treated splenocytes • 100 nM pOVA
and the following individual conditions: • 1. DMSO vehicle control • 2. 300 nM GPR174 inhibitor Compound #10 • 3.
On day 3, cultures were split 1:4 with new media, the inhibitors were added back to original conditions, and mouse IL-7 and mouse IL-15 were added to 10 ng/mL. On days 5 and 8, cells were washed once, counted, and replated at 0.5 million per well with IL-7 and IL-15 and the original inhibitor conditions. On day 10, cells were counted, washed twice with 12 mL RP10, and restimulated in quadruplicate with EG7 cells (H-2 K^b thymoma expressing OVA) in 96-well round bottom plates according to the following conditions: • 0.2 mL RP10; • 0.1 million OT-I T cells from each T cell expansion condition; and • 0.5 million EG7 cells.
Supernatants were collected after 6 hours and assayed for IL-2 levels (MesoScale Discovery platform).

human CD8 T cells [1] = assay: Example 2: human CD8 T cell 10-day expansion with IL-2 and inhibitors, IL-2 after CD3/CD28 restimulation; conditions: 300 nM Compound #10, 100 nM ZM-241385, CD3/CD28 bead restimulation 7 hours
Protocol: (§1) Purified human CD8 T cells were cultured in 24-well plates according to the following conditions per well: • 1 mL X-VIVO™ 15 media (Lonza) • 1 million human CD8 T cells • 2 million Human T-Activator CD3/CD28 Dynabeads® (ThermoFisher)
(§2) and the following individual conditions: • 1. DMSO vehicle control • 2. […] 300 nM GPR174 inhibitor Compound #10 • 4.
(§3) On days 4 and 7, cultures were washed and seeded at 0.5 million cells per well with the same GPR174 and A2A inhibitor conditions, and with 100 U/mL human IL-2.
After 7 hours of culture, supernatants were harvested and analyzed for IL-2 (MesoScale Discovery).

human CD8 T cells [2] = assay: Example 2: flow cytometry phenotype clusters (FlowSOM) of expanded human CD8 T cells; conditions: 10-day culture; relative to vehicle control
Protocol: as §1, §2, §3
In addition to restimulation, expanded T cells were characterized by flow cytometry to evaluate expression of CCR7, CD39, CD69, TIGIT, CD45RA, LAG3, T-BET. The following detection reagents were used: anti-CD8 BV510, anti-CCR7 PE-Cy7, anti-CD39 BV605, anti-CD69 BV421, anti-TIGIT eFluor450, anti-CD45RA BV750, anti-LAG3 APC-Cy7, anti-T-BET PE-dazzle594 (all from Biolegend, Invitrogen, or BD Biosciences), and LIVE/DEAD™ Fixable Green Dead Cell Stain (ThermoFisher).
Data was collected with a Cytek Northern Lights flow cytometer, and was analyzed in FlowJo, in which automated clustering was performed on a concatenated file (containing all 4 culture conditions) with the FlowSOM plugin to generate 16 clusters. The abundance of each cluster in each cell sample was exported using the Cluster Explorer plugin.

human CD8 T cells [3] = assay: Example 3: human CD8 T cell 10-day expansion with IL-7+IL-15 and inhibitors, IL-2 after restimulation; conditions: for IL-2 production following restimulation, fold vs vehicle control (FIG. 4): 300 nM Compound #10, 100 nM ZM-241385, 18 hours restimulation; for IL-2 production following restimulation, fold vs vehicle (FIG. 5): 300 nM Compound #10, 500 nM Compound #49, 100 nM ZM-241385, 18 hours restimulation
Protocol: (§4) Purified human CD8 T cells were cultured in 24-well plates with the following conditions per well: • 2 mL X-VIVO™ 15 media (Lonza) • 1 million human CD8 T cells • 2 million Human T-Activator CD3/CD28 Dynabeads® (ThermoFisher) • 10 ng/mL human IL-7 (R&D Systems) • 10 ng/mL human IL-15 (R&D Systems)
and the following individual conditions for FIG. 4: • 1. DMSO vehicle control • 2. […] 300 nM GPR174 inhibitor Compound #10 • 4.
On days 4 and 7 (FIG. 4) or days 3, 5, and 7 (FIG. 5), cultures were washed and seeded at 0.5 cells million per well with the same GPR174 and A2A inhibitor conditions, and with 10 ng/mL IL-7 and 10 ng/mL IL-15.
After 18 hours of culture, supernatants were harvested and analyzed for IL-2 (MesoScale Discovery).

human CD8 T cells [4] = assay: Example 4: human CD8 T cell expansion with GPR174, A2A, PKA or EPAC inhibitors, IL-2 after restimulation; conditions: for IL-2 production following restimulation, fold increase vs vehicle (FIG. 6): 300 nM Compound #10, 100 nM ZM-241385, 500 μM Rp-8-Br-cAMPS, 5 μM ESI-09, 5.5 hours restimulation
Protocol: as §4, with “(Lonza) • 0.4 million human” for “(Lonza) • 1 million human”, “T cells (Donor A) • 2” for “T cells • 2”
and the following individual conditions, ±300 nM Compound #10: • 1. DMSO vehicle control • 2. […] 500 μM Rp-8-Br-cAMPS • 4. 5 μM ESI-09
On days 3, 5, and 7, cultures were washed and seeded at 0.5 cells million per well with the same small molecule inhibitor conditions, and with IL-7 and IL-15.
After 5.5 hours of culture, supernatants were harvested and analyzed for IL-2 content (MesoScale Discovery).

Compound: CC1CCN(c2cc(N3CCN(S(=O)(=O)c4ccccc4)CC3)c([N+](=O)[O-])cc2F)CC1 [Compound 10]
- IL-2 production following restimulation, fold above Vehicle (OT-I mouse CD8 T cells): 1.8 fold
- IL-2 production upon restimulation, fold increase vs vehicle (human CD8 T cells [1]): 1.7 fold
- T cell phenotype clusters enriched or reduced (CD39, CD69, TIGIT, T-BET, LAG3, CCR7, CD45RA) (human CD8 T cells [2]): displayed this same trend, albeit to a lesser degree
- IL-2 production following restimulation, fold vs vehicle control (FIG. 4) (human CD8 T cells [3]): 3 fold
- IL-2 production following restimulation, fold vs vehicle (FIG. 5) (human CD8 T cells [3]): approximately 1.3 fold
- IL-2 production following restimulation, fold increase vs vehicle (FIG. 6) (human CD8 T cells [4]): negligible effect
- IL-2 production following restimulation, effect in the presence of Rp-8-Br-cAMPS (FIG. 6) (human CD8 T cells [4]; 300 nM Compound #10 added to 500 μM Rp-8-Br-cAMPS): did not enhance IL-2 production

Compound: Nc1nc(NCCc2ccc(O)cc2)nc2nc(-c3ccco3)nn12 [ZM-241385, ZM 241385]
- IL-2 production upon restimulation, fold increase vs vehicle (human CD8 T cells [1]): did not alter IL-2 production
- T cell phenotype clusters enriched or reduced (CD39, CD69, TIGIT, T-BET, LAG3, CCR7, CD45RA) (human CD8 T cells [2]): relatively unchanged
- IL-2 production following restimulation, fold vs vehicle control (FIG. 4) (human CD8 T cells [3]): negligible
- IL-2 production following restimulation, fold vs vehicle (FIG. 5) (human CD8 T cells [3]): approximately 1.3 fold
- IL-2 production following restimulation, fold increase vs vehicle (FIG. 6) (human CD8 T cells [4]): negligible effect
